Patent US6821970B2, “Oxazinocarbazoles for the treatment of CNS diseases” (Pharmacia & Upjohn Company, priority 1999, dated 2004)
Structures can show the parent of a compound that is named as a salt.

Legend:
[1] = target: T1, cloned human 5-HT6 receptor (Homo sapiens, UniProt P50406); assay: 5-HT6 receptor binding assay ([3H]-LSD radioligand, SPA beads); conditions: membranes of Hela cells containing cloned human 5-HT6 receptor, IC50 converted by Cheng-Prusoff
T1 construct: host or cells: HeLa cells (G-418 selected); membrane preparation
Experimental: 5-HT6 Receport Binding Assay
Growth of Cells and Membrane Preparation
Hela cells containing the cloned human 5-HT6 receptor were acquired from Dr. David R. Sibley's laboratory in National Institute of Health (see Sibley, D. R., J. Neurochemistry, 66, 47-56, 1996). Cells were grown in high glucose Dulbecco's modified Eagle's medium, supplemented with L-glutamine, 0.5% sodium pyruvate, 0.3% penicillin-streptomycin, 0.025% G-418 and 5% Gibco fetal bovine serum and then were harvested, when confluent, in cold phosphate buffered saline.
Harvested intact cells were washed once in cold phosphate-buffered saline. The cells were pelleted and resuspended in 100 ml of cold 50 mM Tris, 5 mM EDTA and 5 mM EGTA, pH 7.4. Homogenization was with a Vir Tishear generator, 4 cycles for 30 seconds each at setting 50. The homogenized cells were centrifuged at […] for 10 minutes and the supernatant was removed. The pellet was resuspended in 100 ml of the above buffer and rehomogenized for 2 cycles. The rehomogenized cells were then centrifuged at […] for 10 minutes and the supernatant was removed. The combined supernatant (200 ml) was centrifuged at 23,000 RPM (80,000×g) for 1 hour in a Beckman Rotor (42.1 Ti). The membrane pellet was resupended in 50-8-ml of assay buffer containing HEPES 20 mM, MgCl2 10 mM, NaCl 150 mM, EDTA 1 mM, pH 7.4 and stored frozen in aliqouts at −70° C.
5-HT6 Receptor Binding Assay
The radioligand binding assay used [^3H]-lysergic acid diethylamide (LSD). The assay was carried out in Wallac 96-well sample plates by the addition of 11 μl of the test sample at the appropriate dilution (the assay employed 11 serial concentrations of samples run in duplicate), 11 μl of radioligand, and 178 μl of a washed mixture of WGA-coated SPA beads and membranes in binding buffer. The plates were shaken for about 5 minutes and then incubated at room temperature for 1 hour. The plates were then loaded into counting cassettes and counted in a Wallac MicroBeta Trilux scintillation counter.
Binding Constant (Ki) Determination
Eleven serial dilutions of test compounds were distributed to assay plates using the PE/Cetus Pro/Pette pipetter. These dilutions were, followed by radioligand and the bead-membrane mixture prepared as described above. The specifically bound cpm obtained were fit to a one-site binding model using GraphPad Prism ver. 2.0. Estimated IC50 values were converted to Ki values using the Cheng-Prusoff equation (Cheng, Y. C. et al., Biochem. Pharmacol., 22, 3099-108, 1973).

T1 sequence (P50406 whole entry): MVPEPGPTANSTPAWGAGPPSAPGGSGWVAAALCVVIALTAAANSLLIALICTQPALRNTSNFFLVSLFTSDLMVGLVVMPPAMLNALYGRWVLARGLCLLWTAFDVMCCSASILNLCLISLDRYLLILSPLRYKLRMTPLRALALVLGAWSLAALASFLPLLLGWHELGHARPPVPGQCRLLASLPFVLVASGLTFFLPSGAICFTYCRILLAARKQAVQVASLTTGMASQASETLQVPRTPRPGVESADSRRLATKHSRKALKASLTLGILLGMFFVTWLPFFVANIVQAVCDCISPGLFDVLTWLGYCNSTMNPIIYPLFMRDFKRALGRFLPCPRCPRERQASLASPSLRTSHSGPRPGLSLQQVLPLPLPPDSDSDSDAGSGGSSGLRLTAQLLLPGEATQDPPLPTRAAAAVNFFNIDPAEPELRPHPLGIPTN

Row | melting point [°C] | Ki [1] [nM] | Structure (SMILES)
1 | 105 to 107 | – | CCN(CC)CCOc1cccc2c1c1cccc3c1n2C(c1ccccc1)CO3 (centres unmarked) (as salt: maleic acid salt) [Example 3, N,N-Diethyl-2-[(1-phenyl-1,2-dihydro[1,4]oxazino[2,3,4-jk]carbazol-7-yl)oxy]-1-ethanamine]
2 | 236 | – | CS(=O)(=O)O.NCCOc1cccc2c1c1cccc3c1n2[C@H](c1ccccc1)CO3 [Example 2, (R)-(−)-[(1-Phenyl-1,2-dihydro[1,4]oxazino[2,3,4-jk]carbazol-7-yl)oxy]ethanamine]
3 | – | 7.6 | CCN(CC)CCOc1cccc2c1c1cccc3c1n2C(c1ccccc1)CO3 (centres unmarked) [Example 3, N,N-Diethyl-2-[(1-phenyl-1,2-dihydro[1,4]oxazino[2,3,4-jk]carbazol-7-yl)oxy]-1-ethanamine]
4 | – | 39 | O=CNCCOc1cccc2c1c1cccc3c1n2C(c1ccccc1)CO3 (centres unmarked) [Example 7, 2-[(1-Phenyl-1,2-dihydro[1,4]oxazino[2,3,4-jk]carbazol-7-yl)oxy]ethylformamide]
5 | – | 2 | CNCCOc1cccc2c1c1cccc3c1n2C(c1ccccc1)CO3 (centres unmarked) [Example 8, N-Methyl-2-[(1-phenyl-1,2-dihydro[1,4]oxazino[2,3,4-jk]carbazol-7-yl)oxy]-1-ethanamine]
6 | 72 | 35 | CC(C)(C)OC(=O)N1CCN(CCOc2cccc3c2c2cccc4c2n3C(c2ccccc2)CO4)CC1 (centres unmarked) [Example 12, tert-Butyl 4-{2-[(1-phenyl-1,2-dihydro[1,4]oxazino[2,3,4-jk]carbazol-7-yl)oxy]ethyl}-1-piperazinecarboxylate]
7 | 72 | 57 | c1ccc(C2COc3cccc4c5c(OCCN6CCNCC6)cccc5n2c34)cc1 (centres unmarked) [Example 13, 1-Phenyl-1,2-dihydro[1,4]oxazino[2,3,4-jk]carbazol-7-yl 2-(1-piperazinyl)ethyl Ether]
8 | 57 | 6.9 | CN1CCN(CCOc2cccc3c2c2cccc4c2n3C(c2ccccc2)CO4)CC1 (centres unmarked) [Example 14, 2-(4-Methyl-1-piperazinyl)ethyl 1-phenyl-1,2-ihydro[1,4]oxazino [2,3,4-jk]carbazol-7-yl Ether]
9 | – | 97 | c1ccc(C2COc3cccc4c5c(OCCN6CCOCC6)cccc5n2c34)cc1 (centres unmarked) [Example 15, 2-(4-Morpholinyl)ethyl 1-phenyl-1,2-dihydro[1,4]oxazino[2,3,4-jk]carbazol-7-yl Ether]
10 | – | 5 | c1ccc(C2COc3cccc4c5c(OCCN6CCCCC6)cccc5n2c34)cc1 (centres unmarked) [Example 16, 1-Phenyl-1,2-dihydro[1,4]oxazino[2,3,4-jk]carbazol-7-yl 2-(1-piperidinyl)ethyl Ether]
11 | – | 1.1 | OCCNCCOc1cccc2c1c1cccc3c1n2C(c1ccccc1)CO3 (centres unmarked) [Example 17, 2-({2-[(1-Phenyl-1,2-dihydro[1,4]oxazino[2,3,4-jk]carbazol-7-yl)oxy]ethyl}amino)-1-ethanol]
12 | 117 to 118 | 3.3 | CN(C)CCOc1cccc2c1c1cccc3c1n2C(c1ccccc1)CO3 (centres unmarked) [Example 18, N,N-dimethyl-2-[(1-phenyl-1,2-dihydro[1,4]oxazino[2,3,4-jk]carbazol-7-yl)oxy]-1-ethanamine]
13 | – | 8 | Cc1cc2c3c(c1)c1c(OCCN)cccc1n3C(c1ccccc1)CO2 (centres unmarked) [Example 19, 2-[(5-Methyl-1-phenyl-1,2-dihydro[1,4]oxazino[2,3,4-jk]carbazol-7-yl)oxy]-1-ethanamine]
14 | – | 28 | CCN(CC)CCCCOc1cccc2c1c1cccc3c1n2C(c1ccccc1)CO3 (centres unmarked) [Example 20, N,N-Diethyl-N-{4-[(1-phenyl-1,2-dihydro[1,4]oxazino[2,3,4-jk]carbazol-7-yl)oxy]butyl}amine]
15 | – | 19 | CCN(CC)CCCOc1cccc2c1c1cccc3c1n2C(c1ccccc1)CO3 (centres unmarked) [Example 21, N,N-Diethyl-N-{3-[(1-phenyl-1,2-dihydro[1,4]oxazino[2,3,4-jk]carbazol-7-yl)oxy]propyl}amine]
16 | – | 3 | OCCNCCOc1cccc2c1c1cccc3c1n2[C@H](c1ccccc1)CO3 [Example 22, [(2-{[(1R)-1-Phenyl-1,2-dihydro[1,4]oxazino[2,3,4-jk]carbazol-7-yl]oxy}ethyl)amino]ethanol]

Row | Structure (SMILES) | melting point [°C] | Ki [1] [nM]
17 | NCCOc1cccc2c1c1cccc3c1n2[C@@H](c1ccccc1)CO3 [Example 1, (S)-(+)-[(1-Phenyl-1,2-dihydro[1,4]oxazino[2,3,4-jk]carbazol-7-yl)oxy]ethanamine] | – | 76
18 | NCCOc1cccc2c1c1cccc3c1n2C(c1ccccc1)CO3 (centres unmarked) [Example 4, [(1-Phenyl-1,2-dihydro[1,4]oxazino[2,3,4-jk]carbazol-7-yl)oxy]ethanamine] | – | 1.7
19 | CCNCCOc1cccc2c1c1cccc3c1n2C(c1ccccc1)CO3.O=C(O)/C=C\C(=O)O (centres unmarked) [Example 6, N-Ethyl-2-[(1-phenyl-1,2-dihydro[1,4]oxazino[2,3,4-jk]carbazol-7-yl)oxy]-1-ethanamine] | 105 | 2.7
20 | NCCOc1c(Cl)ccc2c1c1cccc3c1n2C(c1ccccc1)CO3 (centres unmarked) [Example 9, 2-[(8-Chloro-1-phenyl-1,2-dihydro[1,4]oxazino[2,3,4-jk]carbazol-7-yl)oxy]-1-ethanamine] | – | 5.8
21 | CCNCCOc1cccc2c1c1cc(C)cc3c1n2C(c1ccccc1)CO3 (centres unmarked) [Example 11, N-Ethyl-2-[(5-methyl-1-phenyl-1,2-dihydro[1,4]oxazino[2,3,4-jk]carbazol-7-yl)oxy]-1-ethanamine] | – | 5.3
